Source: PMC6627486, “Ipomoeassin F Binds Sec61α to Inhibit Protein Translocation” (Journal of the American Chemical Society, 2019)
Like-named read-outs stand apart in the source and are kept apart here.

Tests used:
Assay type in all cases: cell-based, human
[1] = test system: MCF7; test: MTT cytotoxicity assay, MCF7; settings: Homo sapiens, MCF7, 72 h, read-out: Cytotoxicity (IC50)
Procedure: Two human breast cancer cell lines (MDA-MB-231 and MCF7) and one human breast non-tumorigenic epithelial cell line (MCF-10A) were maintained in a DMEM high glucose culture medium supplemented with 10% fetal bovine serum (FBS) and 2 mM L-glutamine. The cells were grown in a humidified atmosphere of 5% CO2 and 95% air at 37 °C . The culture medi um w as changed every 2–4 days depending on cell density. Cell cultures were passaged once a week using 0.125% trypsin-EDTA to detach the cells from culture flasks/dishes.
The human colorectal cancer cell line HCT116 was maintained in McCoy’s 5A (modified) medium supplemented with 10% fetal bovine serum (FBS). The human embryonic kidney (HEK293T and HEK293 FRT TRex) cell line was maintained in DMEM high glucose culture medium supplemented with 10% fetal bovine serum (FBS).
HepG2 cells were cultured in DMEM supplemented with 10% fetal bovine serum and 2 mM L-glutamine at 37°C under 5% CO2.
Viable cells were counted with a hemocytometer immediately before each experiment. Experiments were done in triplicate. First, 100 μL of MCF7 cells at the density of 50,000 cells/mL were seeded in a 96-well plate (5,000 cells/well), which was incubated at 37 °C and 5% CO2 atmosphere for 24 h. The compounds were dissolved in DMSO (dimethyl sulfoxide) to make drug stocks (10 mM). The stock solutions were diluted with the complete DMEM high glucose culture medium to make a series of gradient fresh working solutions right before each test. Subsequently, the cells were treated with 100 μL of the freshly made gradient working solution in a total volume of 200 μL/well for 72 h. After that, the media were discarded and 200 μL of the fresh complete medium containing 10% of MTT stock solution (5 mg/mL) was added to each well. The plate was then incubated at 37 °C and 5% CO2 for 3 h. Next, 180 μL of the medium was discarded from each well , and 180 μL of DMSO was added to each well to dissol ve formazan crystals. Absorbance of formazan was detected by a microplate reader (BioTek Synergy H1) at 570 nm with 650 nm as the reference wavelength. The percentage of viability compared to the negative control (DMSO-treated cells) was determined . GraphPad Prism 6 software was used to make a plot of %

[2] = test system: CD62L expression in Jurkat T cells; test: CD62L expression by Jurkat T cells; settings: 24 h treatment
Procedure: Jurkat E6.1 (ATCC TIB-152TM) T cells were cultured in RPMI GlutamaxTM (Life Technologies), supplemented with 10% heat-inactivated fetal calf serum (FCS) (Invitrogen) and penicillin/streptomycin (100 U/ml, 100 µg/ml). Cells were treated with Ipomoeassin F or mycolactone for 24 h, then pelleted and stained with FITC-conjugated anti-human CD62L (clone DREG-56 (BioLegend #304804) at 500 ng/ml) during 40 min at 4°C. Fluorescence signals were acquired on an Accuri CD (BD) and analyzed with the […]
FlowJo X software. […]

[3] = test system: WT HEK; test: Alamar Blue viability, WT HEK293; settings: read-out: cell viability IC50
Procedure: (§1) AlamarBlue Cytotoxicity Assay […]
(§2) HCT116 and HEK293T. Viable cells were counted using an automated cell counter (BioRad TC20) before each experiment. Experiments were performed either in quadruplicate or duplicate sets. First 100µ l of HCT116 or HEK293T cells at a density of 25,000 cells/m l was seeded in black wall, clear bottom, 96-well plates (2500 cells/well) (Viewplate-96 Perkin Elmer). HEK293 FRT Trex cells were seeded in complete medium supplemented to 1 μg/ml Doxycycline to induce expression of Sec61a constructs. Cells were then incubated at 37 °C and 5% CO2 for 24 h. The compounds were dissolved in DMSO to make drug stocks (10 mM). The stock solutions were diluted with the complete DMEM or McCoy’s 5A culture media supplemented with DMSO to make a series of gradient fresh working solutions at equal DMSO percentage immediately prior to each test. Subsequently, the cells were treated with 25 μl of the freshly made gradient in a total volume of 125 μl/well for 72 h. After that, the media were supplemented with 10% of AlamarBlue (resazurin) stock solution. The plate was then incubated at 37 °C and 5% CO2 for another 4 h. Emission of each well at 620 nm was detected by a microplate reader (Perkin Elmer EnSpire) at excitation 580 nm. The percentage of viability compared to the negative control (DMSO -treated cells) was determined. […]

[4] = test system: HEK R66I; test: Alamar Blue viability, HEK293 expressing Sec61α R66I; settings: read-out: cell viability IC50
Procedure: as §1
(§3) Compounds were diluted from a DMSO stock into culture medium as described above. Cells were treated for 96 h, then viability measured with AlamarBlue, detected using the conditions described but with a BMG Fluostar Optima Microplate Reader. The percentage of viability compared to the negative control (DMSO-treated cells) was determined. GraphPad Prism 6 software was used to make a plot of % viability versus sample […]
(§4) HCT116 and HEK293T. Viable cells were counted using an automated cell counter (BioRad TC20) before each experiment. Experiments were performed either in quadruplicate or duplicate sets. First 100µ l of HCT116 or HEK293T cells at a density of 25,000 cells/m l was seeded in black wall, clear bottom, 96-well plates (2500 cells/well) (Viewplate-96 Perkin Elmer). HEK293 FRT Trex cells were seeded in complete medium supplemented to 1 μg/ml Doxycycline to induce expression of Sec61a constructs. Cells were then incubated at 37 °C and 5% CO2 for 24 h. The compounds were dissolved in DMSO to make drug stocks (10 mM). […] Emission of each well at 620 nm was detected by a microplate reader (Perkin Elmer EnSpire) at excitation 580 nm. The percentage of viability compared to the negative control (DMSO -treated cells) was determined. […]

[5] = test system: HEK S82P; test: Alamar Blue viability, HEK293 expressing Sec61α S82P; settings: read-out: cell viability IC50
Procedure: as §1, §3, §4

[6] = test system: HEK T86M; test: Alamar Blue viability, HEK293 expressing Sec61α T86M; settings: read-out: cell viability IC50
Procedure: as §1, §2

[7] = test system: WT HCT116; test: Alamar Blue viability, parental HCT116 (96 h); settings: read-out: cell viability IC50
Procedure: AlamarBlue Cytotoxicity Assay
MDA-MB-231, MCF-10A and HCT116. Viable cells were counted with a hemocytometer immediately before each experiment . Experiments were done in triplicate. First, 100 μL of MDA-MB-231 cells or MCF-10A cells at the density of 50,000 cells/mL was seeded in a 96-well plate (5,000 cells/well) and then incubated at 37 °C and 5% CO2 for 24 h. The compounds were dissolved in DMSO (dimethyl sulfoxide) to make drug stocks (10 mM). The stock solutions were diluted with the complete DMEM high glucose culture medium to make a series of gradient fresh working solutions right before each test. Subsequently, the cells were treated with 100 μL of the freshly made gradient working solution in a total volume of 200 μL/well for 72 h. After that, the media were discarded and 200 μL of the fresh complete medium containing 10% of AlamarBlue (resazurin) stock solution was added to each well. The plate was then incubated at 37 °C and 5% CO2 for another 3 h. Emission of each well at 620 nm was detected by a microplate reader (BioTek Synergy H1) at excitation 580 nm. For HCT116 WT and mutant lines, cells were seeded at 1000 cells/ well in complete McCoys medium. […] Cells were treated for 96 h, then viability measured with AlamarBlue, detected using the conditions described but with a BMG Fluostar Optima Microplate Reader. […]
was determined. […]

C/C=C(\C)C(=O)O[C@@H]1[C@@H](O)[C@@H]2O[C@H]3[C@H](O[C@@H](CCCCC)CCCCCCC(=O)CCC(=O)OC[C@@H](O2)[C@H]1OC(=O)/C=C/c1ccccc1)O[C@H](C)[C@H](OC(C)=O)[C@@H]3O [ipomoeassin F]
IC50 [1]: 0.0364 µM | IC50 ([2]; Homo sapiens): 0.0063 µM | IC50 ([3]; Homo sapiens, HEK293, 72 h): 0.0096 ± 0.001 µM | IC50 ([4]; Homo sapiens, HEK293, 72 h): > 10 µM | IC50 ([5]; Homo sapiens, HEK293, 72 h): > 10 µM | IC50 ([6]; Homo sapiens, HEK293, 72 h): 0.0135 ± 0.0006 µM | IC50 ([7]; Homo sapiens, HCT-116, WT HCT116, 96 h): 0.04 ± 0.004 µM

CC(=C\C=C\C(C)=C\[C@H](O)[C@@H](O)C[C@H](C)O)/C=C(C)/C=C/C(=O)O[C@H]1CCCC(=O)O[C@@H]([C@@H](C)C/C(C)=C/[C@@H](C)[C@H](O)C[C@@H](C)O)C/C=C(\C)C[C@@H]1C [mycolactone, reference compound]
IC50 [2]: 0.0063 µM | IC50 ([3]; 72 h): 0.0236 ± 0.0006 µM | IC50 ([4]; 72 h): 4.62 µM | IC50 ([5]; 72 h): 1.16 µM | IC50 ([6]; 72 h): 2.47 µM | IC50 ([7]; WT HCT116, 96 h): 0.0019 ± 0.0006 µM

C/C=C(\C)C(=O)O[C@H]1[C@H](OC(=O)/C=C/c2ccc(OCc3cn(CCOCCOCCOCCNC(=O)CCCC[C@@H]4SC[C@@H]5NC(=O)N[C@@H]54)nn3)cc2)[C@@H](O)[C@@H]2O[C@H]3[C@H](O[C@@H](CCCCC)CCCCCCC(=O)CCC(=O)OC[C@H]1O2)O[C@H](C)[C@H](OC(C)=O)[C@@H]3O [compound 5]
IC50 ([1]; MTT): 0.187 µM
